Measured values from ChEMBL document CHEMBL4680347, “Discovery of novel 1,3,5-triazine derivatives as potent inhibitor of cervical cancer via dual inhibition of PI3K/mTOR” (Bioorg Med Chem, 2021).
Activity calls are given as the source filed them. The rule behind the calls is not given here.

What was measured:
[1] = biological target: Phosphatidylinositol 4,5-bisphosphate 3-kinase catalytic subunit alpha isoform (Homo sapiens, UniProt P42336); test: Inhibition of PI3Kalpha (unknown origin) measured after 1 hr by ADP-glo plus luminescence assay
Phosphatidylinositol 4,5-bisphosphate 3-kinase catalytic subunit alpha isoform, sequence (P42336 whole entry, canonical isoform): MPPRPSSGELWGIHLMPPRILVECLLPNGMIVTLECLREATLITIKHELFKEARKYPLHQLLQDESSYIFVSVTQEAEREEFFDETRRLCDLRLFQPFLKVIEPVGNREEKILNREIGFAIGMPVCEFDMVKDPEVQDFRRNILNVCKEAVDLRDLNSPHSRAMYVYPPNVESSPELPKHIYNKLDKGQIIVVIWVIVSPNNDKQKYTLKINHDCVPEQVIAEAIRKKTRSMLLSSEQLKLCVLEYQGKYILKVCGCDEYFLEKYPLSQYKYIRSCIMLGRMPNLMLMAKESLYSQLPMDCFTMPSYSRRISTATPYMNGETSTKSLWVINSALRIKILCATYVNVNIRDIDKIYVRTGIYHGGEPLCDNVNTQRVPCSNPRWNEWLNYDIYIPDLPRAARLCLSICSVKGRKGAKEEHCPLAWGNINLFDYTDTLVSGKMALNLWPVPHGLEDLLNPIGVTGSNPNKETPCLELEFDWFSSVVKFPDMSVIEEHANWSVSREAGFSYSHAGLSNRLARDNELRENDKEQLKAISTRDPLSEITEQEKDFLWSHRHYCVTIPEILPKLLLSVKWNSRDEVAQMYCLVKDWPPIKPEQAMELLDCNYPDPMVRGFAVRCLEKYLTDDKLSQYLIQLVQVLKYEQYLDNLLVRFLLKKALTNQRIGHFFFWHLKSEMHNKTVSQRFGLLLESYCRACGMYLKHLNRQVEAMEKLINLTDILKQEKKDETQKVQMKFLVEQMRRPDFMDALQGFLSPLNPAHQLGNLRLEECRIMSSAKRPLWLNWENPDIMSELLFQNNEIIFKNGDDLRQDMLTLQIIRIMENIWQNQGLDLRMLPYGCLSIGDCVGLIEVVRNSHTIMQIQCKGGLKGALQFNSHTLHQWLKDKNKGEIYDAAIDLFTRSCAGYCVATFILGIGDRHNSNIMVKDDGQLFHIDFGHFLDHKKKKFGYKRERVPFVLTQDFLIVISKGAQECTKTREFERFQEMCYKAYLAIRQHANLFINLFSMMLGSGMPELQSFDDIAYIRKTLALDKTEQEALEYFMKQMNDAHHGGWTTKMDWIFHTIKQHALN

[2] = biological target: Serine/threonine-protein kinase mTOR (Homo sapiens, UniProt P42345); test: Inhibition of mTOR (unknown origin) measured after 45 mins by LANCE Ultra assay
HeLa [3] = test: Induction of cell cycle arrest in human HeLa cells assessed as accumulation at S phase at 4 uM after 24 hrs by RNase A/PI-staining based flow cytometric analysis (reference value: 17.17%); format: functional
HeLa [4] = test: Antiproliferative activity against human HeLa cells assessed as reduction in cell viability incubated for 24 to 72 hr by MTT assay; format: functional, cell-based; settings: dose microM <=12, time 24-72 hrs
HeLa [5] = test: Antiproliferative activity against human HeLa cells assessed as reduction in cell viability measured upto 12 uM by MTT assay; format: functional, cell-based; settings: dose microM <=12, time 24-72 hrs, TDE = time-dependent effect
HeLa [6] = test: Induction of cell cycle arrest in human HeLa cells assessed as accumulation at S phase at 12 uM after 24 hrs by RNase A/PI-staining based flow cytometric analysis (reference value: 17.17%); format: functional
HeLa [7] = test: Induction of apoptosis in human HeLa cells assessed as late apoptotic cells at 8 uM measured after 24 hrs by Annexin-V/FITC and propidium iodide staining based flow cytometry (reference value: 3.4%); format: functional
[8] = biological target: Phosphatidylinositol 4,5-bisphosphate 3-kinase catalytic subunit beta isoform (Homo sapiens, UniProt P42338); test: Inhibition of PI3Kbeta (unknown origin) measured after 1 hr by ADP-glo plus luminescence assay
Phosphatidylinositol 4,5-bisphosphate 3-kinase catalytic subunit beta isoform, sequence (P42338 whole entry, canonical isoform): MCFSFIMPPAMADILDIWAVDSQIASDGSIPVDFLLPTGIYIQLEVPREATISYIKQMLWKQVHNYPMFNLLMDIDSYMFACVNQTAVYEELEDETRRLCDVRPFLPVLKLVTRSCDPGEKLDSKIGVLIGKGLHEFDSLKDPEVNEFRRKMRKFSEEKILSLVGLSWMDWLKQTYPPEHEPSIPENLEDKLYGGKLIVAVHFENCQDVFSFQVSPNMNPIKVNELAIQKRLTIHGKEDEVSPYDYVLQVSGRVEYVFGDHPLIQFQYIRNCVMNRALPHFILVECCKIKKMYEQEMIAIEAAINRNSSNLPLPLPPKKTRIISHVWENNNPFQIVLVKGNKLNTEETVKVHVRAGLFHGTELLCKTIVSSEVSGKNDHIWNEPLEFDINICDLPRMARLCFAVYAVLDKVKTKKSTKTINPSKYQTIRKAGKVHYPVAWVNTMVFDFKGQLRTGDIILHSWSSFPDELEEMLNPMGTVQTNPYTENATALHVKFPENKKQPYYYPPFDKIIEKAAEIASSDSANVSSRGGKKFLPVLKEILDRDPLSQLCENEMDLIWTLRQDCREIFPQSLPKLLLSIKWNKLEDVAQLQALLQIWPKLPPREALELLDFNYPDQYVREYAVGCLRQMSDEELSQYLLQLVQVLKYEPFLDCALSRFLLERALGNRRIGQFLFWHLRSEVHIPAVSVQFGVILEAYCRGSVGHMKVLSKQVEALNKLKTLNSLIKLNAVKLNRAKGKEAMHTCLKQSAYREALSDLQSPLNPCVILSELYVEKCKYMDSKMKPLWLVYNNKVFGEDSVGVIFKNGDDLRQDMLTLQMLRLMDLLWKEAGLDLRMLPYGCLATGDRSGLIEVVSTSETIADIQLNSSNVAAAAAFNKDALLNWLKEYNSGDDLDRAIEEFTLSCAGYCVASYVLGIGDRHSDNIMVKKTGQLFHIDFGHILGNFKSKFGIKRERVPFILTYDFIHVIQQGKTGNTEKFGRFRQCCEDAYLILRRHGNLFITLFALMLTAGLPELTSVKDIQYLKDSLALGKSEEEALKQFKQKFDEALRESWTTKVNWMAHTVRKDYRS

HeLa [9] = test: Anticancer activity against human HeLa cells assessed as inhibition of cell proliferation measured after 48 hrs by MTT assay; format: functional, cell-based
HeLa [10] = test: Induction of apoptosis in human HeLa cells assessed as late apoptotic cells at 4 uM measured after 24 hrs by Annexin-V/FITC and propidium iodide staining based flow cytometry (reference value: 3.4%); format: functional
HeLa [11] = test: Induction of cell cycle arrest in human HeLa cells assessed as accumulation at S phase at 8 uM after 24 hrs by RNase A/PI-staining based flow cytometric analysis (reference value: 17.17%); format: functional
Mus musculus [12] = test: Reduction in p-AKT levels in BALB/c mouse tumor xenografted with human HeLa cells at 5 to 15 mg/kg, po by Western blot analysis; format: functional, organism-based; settings: Neoplasm, dose 5-15 mg/kg
HeLa [13] = test: Induction of cell cycle arrest in human HeLa cells assessed as accumulation at G1 phase at 4 uM after 24 hrs by RNase A/PI-staining based flow cytometric analysis (reference value: 52.21%); format: functional
MDA-MB-231 = test: Anticancer activity against human […] cells assessed as inhibition of cell proliferation measured after 48 hrs by MTT assay; format: functional, cell-based; settings: MDA-MB-231, 48 h
HeLa [14] = test: Inhibition of PI3K/AKT pathway in human HeLa cells assessed as reduction phosphorylated Akt level upto 12 uM by Western blot analysis; format: cell-based; settings: dose microM <=12
HeLa [15] = test: Induction of apoptosis in human HeLa cells assessed as reduction in BAX level upto 12 uM by Western blot analysis; format: functional, cell-based; settings: dose microM <=12
Mus musculus [16] = test: Reduction in p-mTOR levels in BALB/c mouse tumor xenografted with human HeLa cells at 5 to 15 mg/kg, po by Western blot analysis; format: functional, organism-based; settings: Neoplasm, dose 5-15 mg/kg
[17] = biological target: T1, Phosphatidylinositol 4,5-bisphosphate 3-kinase catalytic subunit delta isoform (Homo sapiens, UniProt O00329); test: Inhibition of PI3Kdelta (unknown origin) measured after 1 hr by ADP-glo plus luminescence assay
T1 sequence (O00329 whole entry): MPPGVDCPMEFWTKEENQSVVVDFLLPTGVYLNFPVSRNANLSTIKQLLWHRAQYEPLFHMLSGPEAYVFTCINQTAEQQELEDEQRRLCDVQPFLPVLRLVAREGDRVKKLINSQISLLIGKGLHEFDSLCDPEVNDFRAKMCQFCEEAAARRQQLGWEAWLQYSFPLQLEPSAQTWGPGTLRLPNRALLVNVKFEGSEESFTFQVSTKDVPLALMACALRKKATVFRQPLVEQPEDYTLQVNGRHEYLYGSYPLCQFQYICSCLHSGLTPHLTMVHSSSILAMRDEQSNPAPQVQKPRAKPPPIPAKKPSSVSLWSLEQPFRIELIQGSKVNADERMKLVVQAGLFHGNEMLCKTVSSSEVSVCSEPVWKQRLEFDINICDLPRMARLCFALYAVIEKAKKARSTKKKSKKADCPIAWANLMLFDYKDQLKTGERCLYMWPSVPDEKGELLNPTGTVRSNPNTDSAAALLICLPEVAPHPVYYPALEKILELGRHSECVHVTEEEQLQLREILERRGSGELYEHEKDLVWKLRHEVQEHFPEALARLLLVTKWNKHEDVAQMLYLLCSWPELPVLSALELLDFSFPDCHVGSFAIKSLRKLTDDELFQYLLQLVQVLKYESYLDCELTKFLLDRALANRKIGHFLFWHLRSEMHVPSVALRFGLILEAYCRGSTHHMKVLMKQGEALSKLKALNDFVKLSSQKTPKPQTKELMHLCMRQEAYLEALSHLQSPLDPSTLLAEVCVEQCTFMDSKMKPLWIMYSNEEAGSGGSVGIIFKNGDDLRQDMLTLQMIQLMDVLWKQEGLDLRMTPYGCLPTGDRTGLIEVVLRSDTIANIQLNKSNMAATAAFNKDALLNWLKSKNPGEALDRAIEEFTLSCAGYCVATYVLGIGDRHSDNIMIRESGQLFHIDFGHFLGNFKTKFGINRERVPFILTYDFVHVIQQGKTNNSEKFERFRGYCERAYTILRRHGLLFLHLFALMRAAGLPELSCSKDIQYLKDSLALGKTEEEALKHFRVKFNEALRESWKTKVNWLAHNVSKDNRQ

HeLa [18] = test: Induction of cell cycle arrest in human HeLa cells assessed as accumulation at G1 phase at 8 uM after 24 hrs by RNase A/PI-staining based flow cytometric analysis (reference value: 52.21%); format: functional
[19] = biological target: Phosphatidylinositol 4,5-bisphosphate 3-kinase catalytic subunit gamma isoform (Homo sapiens, UniProt P48736); test: Inhibition of PI3Kgamma (unknown origin) measured after 1 hr by ADP-glo plus luminescence assay
Phosphatidylinositol 4,5-bisphosphate 3-kinase catalytic subunit gamma isoform, sequence (P48736 whole entry, canonical isoform): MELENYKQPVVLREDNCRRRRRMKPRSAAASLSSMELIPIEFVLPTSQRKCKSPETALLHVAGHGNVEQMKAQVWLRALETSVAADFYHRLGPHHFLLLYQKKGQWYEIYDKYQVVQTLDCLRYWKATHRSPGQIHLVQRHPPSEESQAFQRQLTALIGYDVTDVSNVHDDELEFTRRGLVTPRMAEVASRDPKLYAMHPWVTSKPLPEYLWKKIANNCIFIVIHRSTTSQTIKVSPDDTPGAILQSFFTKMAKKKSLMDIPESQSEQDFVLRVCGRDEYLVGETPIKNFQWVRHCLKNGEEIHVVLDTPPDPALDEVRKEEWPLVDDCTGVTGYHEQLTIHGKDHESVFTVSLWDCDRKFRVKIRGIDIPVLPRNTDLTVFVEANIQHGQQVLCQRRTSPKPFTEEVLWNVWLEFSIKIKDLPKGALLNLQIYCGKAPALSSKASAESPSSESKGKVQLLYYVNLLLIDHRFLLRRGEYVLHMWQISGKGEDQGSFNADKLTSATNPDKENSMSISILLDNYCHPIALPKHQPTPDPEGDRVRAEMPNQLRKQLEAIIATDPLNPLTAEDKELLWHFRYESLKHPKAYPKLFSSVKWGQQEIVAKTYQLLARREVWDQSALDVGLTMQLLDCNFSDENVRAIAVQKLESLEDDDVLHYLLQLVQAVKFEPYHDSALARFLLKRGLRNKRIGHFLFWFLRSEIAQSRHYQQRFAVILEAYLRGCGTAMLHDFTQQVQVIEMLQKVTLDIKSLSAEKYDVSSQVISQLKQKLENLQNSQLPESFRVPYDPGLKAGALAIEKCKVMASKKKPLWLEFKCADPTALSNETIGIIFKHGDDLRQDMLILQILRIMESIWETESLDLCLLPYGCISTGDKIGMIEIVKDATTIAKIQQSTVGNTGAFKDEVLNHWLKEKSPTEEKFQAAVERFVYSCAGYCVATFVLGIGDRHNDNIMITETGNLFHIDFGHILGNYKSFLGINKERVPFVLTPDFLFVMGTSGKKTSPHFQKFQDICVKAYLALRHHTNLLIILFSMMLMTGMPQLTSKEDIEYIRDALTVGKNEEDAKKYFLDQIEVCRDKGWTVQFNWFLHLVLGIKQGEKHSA

Mus musculus [20] = test: Reduction in p-PI3K levels in BALB/c mouse tumor xenografted with human HeLa cells at 5 to 15 mg/kg, po by Western blot analysis; format: functional, organism-based; settings: Neoplasm, dose 5-15 mg/kg
HeLa [21] = test: Induction of cell cycle arrest in human HeLa cells assessed as accumulation at G2 phase at 8 uM after 24 hrs by RNase A/PI-staining based flow cytometric analysis (reference value: 30.62%); format: functional
HepG2 = test: Anticancer activity against human HepG2 cells assessed as inhibition of cell proliferation measured after 48 hrs by MTT assay; format: functional, cell-based; settings: HepG2, 48 h
HeLa [22] = test: Induction of apoptosis in human HeLa cells at 4 to 12 uM incubated for 48 hrs by Hoechst 33342 staining based fluorescence microscopy; format: functional, cell-based; settings: dose 4-12 µM
HeLa [23] = test: Induction of apoptosis in human HeLa cells assessed as early apoptotic cells at 8 uM measured after 24 hrs by Annexin-V/FITC and propidium iodide staining based flow cytometry (reference value: 1.60%); format: functional
HeLa [24] = test: Induction of apoptosis in human HeLa cells assessed as increase in Bcl-2 level upto 12 uM by Western blot analysis; format: functional, cell-based; settings: dose microM <=12
HeLa [25] = test: Inhibition of cell invasion in human HeLa cells incubated for 24 hrs by crystal violet staining based transwell assay; format: functional; settings: dose 4-12 µM
HeLa [26] = test: Inhibition of PI3K/AKT pathway in human HeLa cells assessed as reduction phosphorylated PI3K level upto 12 uM by Western blot analysis; format: cell-based; settings: dose microM <=12
HeLa [27] = test: Induction of apoptosis in human HeLa cells assessed as late apoptotic cells at 12 uM measured after 24 hrs by Annexin-V/FITC and propidium iodide staining based flow cytometry (reference value: 3.4%); format: functional
HeLa [28] = test: Induction of apoptosis in human HeLa cells assessed as early apoptotic cells at 4 uM measured after 24 hrs by Annexin-V/FITC and propidium iodide staining based flow cytometry (reference value: 1.60%); format: functional
MCF7 = test: Anticancer activity against human MCF-7 cells assessed as inhibition of cell proliferation measured after 48 hrs by MTT assay; format: functional, cell-based; settings: MCF7, 48 h
HeLa [29] = test: Induction of cell cycle arrest in human HeLa cells assessed as accumulation at G1 phase at 12 uM after 24 hrs by RNase A/PI-staining based flow cytometric analysis (reference value: 52.21%); format: functional
HeLa [30] = test: Antitumor activity against human HeLa cells xenografted in orally dosed BALB/c mouse assessed as reduction in tumor weight measured for 24 days; format: functional, organism-based; settings: dose 5-15 mg/kg, time 24.0 day
HeLa [31] = test: Inhibition of cell migration in human HeLa cells incubated for 72 hrs by wound healing assay; format: functional, cell-based; settings: dose 4-12 µM
HeLa [32] = test: Induction of cell cycle arrest in human HeLa cells assessed as accumulation at G2 phase at 12 uM after 24 hrs by RNase A/PI-staining based flow cytometric analysis (reference value: 30.62%); format: functional
HeLa [33] = test: Inhibition of colony formation in human HeLa cells measured after 24 hrs by crystal violet staining based colony formation assay; format: functional, cell-based; settings: dose 4-12 µM
HeLa [34] = test: Induction of apoptosis in human HeLa cells assessed as early apoptotic cells at 12 uM measured after 24 hrs by Annexin-V/FITC and propidium iodide staining based flow cytometry (reference value: 1.60%); format: functional
HeLa [35] = test: Antitumor activity against human HeLa cells xenografted in orally dosed BALB/c mouse assessed as reduction in tumor volume measured for 24 days; format: functional, organism-based; settings: dose 5-15 mg/kg, time 24.0 day
HeLa [36] = test: Induction of cell cycle arrest in human HeLa cells assessed as accumulation at G2 phase at 4 uM after 24 hrs by RNase A/PI-staining based flow cytometric analysis (reference value: 30.62%); format: functional

SMILES: O=S(=O)(c1ccccc1O)N1CCN(c2nc(NCCN3CCOCC3)nc(N3CCOCC3)n2)CC1
- IC50 [1]: 0.0213 µM
- IC50 [2]: 0.0325 µM

SMILES: COc1ccc(S(=O)(=O)N2CCN(c3nc(NCCN4CCOCC4)nc(N4CCOCC4)n3)CC2)cc1
- IC50 [1]: 0.0089 µM
- IC50 [2]: 0.0208 µM

SMILES: O=[N+]([O-])c1cccc(S(=O)(=O)N2CCN(c3nc(NCCN4CCOCC4)nc(N4CCOCC4)n3)CC2)c1
- IC50 [1]: 0.0389 µM
- IC50 [2]: 0.0768 µM

SMILES: O=S(=O)(c1cccc(F)c1)N1CCN(c2nc(NCCN3CCOCC3)nc(N3CCOCC3)n2)CC1
- IC50 [1]: 0.11 µM
- IC50 [2]: 0.0937 µM

SMILES: Cc1ccccc1S(=O)(=O)N1CCN(c2nc(NCCN3CCOCC3)nc(N3CCOCC3)n2)CC1
- IC50 [1]: 0.032 µM
- IC50 [2]: 0.0323 µM

SMILES: O=[N+]([O-])c1ccc(S(=O)(=O)N2CCN(c3nc(NCCN4CCOCC4)nc(N4CCOCC4)n3)CC2)cc1
- IC50 [1]: 0.0336 µM
- IC50 [2]: 0.0418 µM

SMILES: O=S(=O)(c1ccc(O)cc1)N1CCN(c2nc(NCCN3CCOCC3)nc(N3CCOCC3)n2)CC1
- Activity (HeLa [3]): 20.44%
- Activity (HeLa [4]): Dose-dependent effect
- Activity (HeLa [5]): Tde
- Activity (HeLa [6]): 10.65%
- Activity (HeLa [7]): 16.94%
- IC50 [8]: 0.0123 µM
- IC50 (HeLa [9]): 2.21 µM
- Activity (HeLa [10]): 5.07%
- Activity (HeLa [11]): 19.52%
- inhibition (Mus musculus [12]): Active
- IC50 [1]: 0.00341 µM
- IC50 [2]: 0.00845 µM
- Activity (HeLa [13]): 59.18%
- IC50 (MDA-MB-231): 15.8 µM
- inhibition (HeLa [14]): Active
- Activity (HeLa [15]): Active
- inhibition (Mus musculus [16]): Active
- IC50 [17]: 0.0353 µM
- Activity (HeLa [18]): 20.38%
- IC50 [19]: 0.0246 µM
- inhibition (Mus musculus [20]): Active
- Activity (HeLa [21]): 15.43%
- IC50 (HepG2): 12.2 µM
- Activity (HeLa [22]): Active
- Activity (HeLa [23]): 1.84%
- Activity (HeLa [24]): Active
- Activity (HeLa [25]): Dose-dependent effect
- inhibition (HeLa [26]): Dose-dependent effect
- Activity (HeLa [27]): 17.98%
- Activity (HeLa [28]): 2.71%
- IC50 (MCF7): 16.3 µM
- Activity (HeLa [29]): 75.03%
- Activity (HeLa [30]): Dose-dependent effect
- Activity (HeLa [31]): Dose-dependent effect
- Activity (HeLa [32]): 14.32%
- Activity (HeLa [33]): Dose-dependent effect
- Activity (HeLa [34]): 2.1%
- Activity (HeLa [35]): Dose-dependent effect
- Activity (HeLa [36]): 20.38%

SMILES: O=S(=O)(c1ccccc1Cl)N1CCN(c2nc(NCCN3CCOCC3)nc(N3CCOCC3)n2)CC1
- IC50 [1]: 0.0554 µM
- IC50 [2]: 0.0353 µM

SMILES: O=[N+]([O-])c1ccccc1S(=O)(=O)N1CCN(c2nc(NCCN3CCOCC3)nc(N3CCOCC3)n2)CC1
- IC50 [1]: 0.0423 µM
- IC50 [2]: 0.0663 µM

SMILES: COc1ccccc1S(=O)(=O)N1CCN(c2nc(NCCN3CCOCC3)nc(N3CCOCC3)n2)CC1
- IC50 [1]: 0.0397 µM
- IC50 [2]: 0.0255 µM
